The values that follow come from a melting point compilation (Tetko et al.; mined from patent text by program, amines drawn as free bases though some values may be those of a salt).

In turn, `O=C1Nc2ccc(I)cc2C1=NNC(=O)c1ccc(OCc2ccccc2)cc1` came in with a melting point of 298 °C.

`N#Cc1cc(Cl)c(-n2ncc(-c3nc(C#N)c(C#N)[nH]3)n2)c(Cl)c1` yielded a melting point of 183 to 185 °C.

For `O=C(Nc1ccccc1CS(=O)c1nccn1-c1ccccn1)c1ccccc1` (centres undefined), the melting point was in the range of 109 to 111 °C.

Regarding `CC(=O)SC1CN(C(C(=O)C2CC2)c2ccccc2F)C1` (centres undefined), the melting point fell in the range of 49 to 52 °C.

With `O=C(O)c1ccc2cc(Cl)ccn2c1=O`, the melting point was above 250 °C.

For `CN1CCN(C)c2nc(c3ccccc3n2)NCC2CCCC(CNc3nc1nc1ccccc31)C2`, the melting point was in the range of 284 to 285 °C.

On to `CC(=O)Nc1nc2c(Oc3cc(-c4ccc(C(F)(F)F)nc4N(C)CC4CCCCN4CC(C)C)ncn3)cccc2s1` (centres undefined), for which the melting point was 123 to 125 °C.

In turn, `CCCCc1c(/C=C/C(=O)O)ccc2cc(OC)ccc12` had a melting point of 163 to 164 °C.

In the case of `CN(C)S(=O)(=O)c1cc(-c2csc(=Nc3ccc4c(c3)OCCO4)n2C)ccc1Cl`, the melting point was 200 to 203 °C.

In turn, `Cc1ncccc1Oc1ccc(C(=N)Nc2cc(Cl)cc(NC(=O)C=Cc3ccccc3Cl)c2)cc1` came in with a melting point of 105 to 107 °C.

Regarding `Cn1c(-c2ccccc2)nc2cnc3ccccc3c21`, the melting point was in the range of 168 to 170 °C.

Compound `N#CN=C(Nc1cccnc1)NC(NC(=O)c1ccc(I)cc1)C(Cl)(Cl)Cl` (centres undefined) registered a melting point of 208 to 210 °C.

Take `C=C(c1cc(C(C)(C)C)cc2c1CCC2(C)C)c1sccc1C=O`: the melting point lay within 148 to 150 °C.

Regarding `CCOC(=O)c1c(O)c2ccc(Br)cc2c(=O)n1CC1CC1`, the melting point fell in the range of 105 to 106 °C.

With `Cc1[nH]c(C(=O)N2CCC(C(=O)O)CC2)c(C)c1-c1nc2ccc(C(=O)c3ccccc3)cc2[nH]1`, the melting point fell in the range of 267 to 271 °C.

`CCC(=O)N[C@@H](C)C(=O)N1CCC[C@H]1C(=O)NC(C)C` yielded a melting point of 173 to 175 °C.

Regarding `N#CCCNC(=O)c1cccc(-c2cccc3c2OC(Cc2cccc(C(F)(F)F)c2)C3)c1` (centres undefined), the melting point was 145 to 146 °C.

Take `CC(=O)c1ccc(CC(C)NCC(O)c2ccccc2)cc1` (centres undefined): the melting point was 120 to 135 °C.

`O=C(CNC(=O)C1CCCCC1)c1ccco1` had a melting point of 110 to 111 °C.

Consider `NS(=O)(=O)c1ccc(-c2ccccc2-c2ccc(F)cc2)cc1`, for which the melting point lay within 187 to 188 °C.

With `O=C(OCc1ccc([N+](=O)[O-])cc1)C(=O)c1ccccc1C(=O)O`, the melting point fell in the range of 165 to 167 °C.

`CCCCC(=O)NCCC(=O)O` yielded a melting point of 73 to 76 °C.

For `ON=C(c1cccc(F)c1)c1cccc2nc(N[C@@H]3CCc4ccccc43)ccc12`, the melting point is 180 °C.

`O=C1C=CC(=O)N1CCCCCCN1C(=O)C=CC1=O` gave a melting point of 136 to 139 °C.

`CCOC(=O)c1nc(-c2cccc([N+](=O)[O-])c2)cs1`: the melting point fell in the range of 149 to 150 °C.

In turn, `O=C(Cl)N1CC(Oc2ccc(F)cc2)C1` came in with a melting point of 44 to 52 °C.

In the case of `COC(=O)c1cc(N=C=S)c(C)cc1OC`, the melting point was in the range of 86 to 87.5 °C.

For the compound `CSc1nc2cc(C)nn2c2ncccc12`, the melting point stood at 190 °C.

`O=C1C=C(Oc2ccc(-c3ccccc3)cc2)C(O)O1` (centres undefined) showed a melting point of 192 to 193 °C.

With `N#Cc1ccccc1NC(=O)Nc1ccc(S(N)(=O)=O)cc1`, the melting point was in the range of 256 to 258 °C.

Take `O=C1c2ccccc2CN1CC1CCN(CCc2c[nH]c3ccccc23)CC1`: the melting point is 225 to 230 °C.

Compound `CC(C)(C)NCC(O)CN1C(=O)NC(Cc2c[nH]c3ccccc23)C1=O` (centres undefined) had a melting point of 190 to 191 °C.

Take `CC(C)CC(=O)Nc1ccc2oc3c(c2c1)CCCC3`: the melting point lay in the range of 154 to 157 °C.

`CCN=C(c1ccc(OC)c(OC)c1)N1CCCc2cc(C3=NNC(=O)SC3C)ccc21` (centres undefined) yielded a melting point of 208 °C.

For `CCCCC1OC(=O)c2cc(N)c(N)cc21` (centres undefined), the melting point lay in the range of 94 to 96 °C.

Regarding `CCOC(=O)NC(CCc1ccccc1)P(C)(=O)O` (centres undefined), the melting point lay in the range of 119 to 125 °C.

Regarding `CCCN(CCC)C(=O)n1cc(C)c2c1CC1(c3cccc(O)c3)CCN(CC)CC1C2` (centres undefined), the melting point is 151 to 153 °C.

With `Cc1cc(CC(=O)c2ccc(F)cc2)on1`, the melting point lay within 92 to 93 °C.

With `CC1=CC(C)(C)C=C(O)C1`, the melting point is 46 °C.

`CC1(C)CC(=O)c2c(C3CCC3)sc(C#N)c2C1` returned a melting point of 65 to 68 °C.

`CC12CCC(S(=O)(=O)C(F)(F)F)=CC1=CCC1C2CCC2(C)C(C(=O)O)CCC12` (centres undefined) yielded a melting point of 182 °C.

The compound `CCOC(=O)c1cnc2sc(-c3ccc(OC)cc3)c(CN(C)Cc3ccccc3)c2c1O` had a melting point of 175 to 177 °C.

In turn, `CC(C)n1nc(-c2ccc(O)cc2)c2cccc(C(F)(F)F)c21` had a melting point of 156 to 157 °C.

In turn, `Cc1ccc(C2=NC(C)(C)[C@@H](c3ccncc3)C2)c(C)c1` returned a melting point of 50 to 51 °C.

Consider `O=[N+]([O-])c1cccc(CO)c1Cl`, for which the melting point is 69 to 70 °C.

`CCNc1nc(NCc2ccco2)nc(Nc2ccc3nc(C)sc3c2)n1`: the melting point lay in the range of 97 to 99 °C.

`Cc1ccc(-c2nc3ccc(Cl)nc3n2CC(=O)N(C)C)cc1` returned a melting point of 182 to 185 °C.

Take `CCCCCCCC(CC(=O)O)CC(=O)O`: the melting point was in the range of 43 to 44 °C.

As for `CCOC(=O)C(=O)N(c1ccccc1)c1cc(OC)c([N+](=O)[O-])cc1OC`, the melting point was 146 to 147 °C.

`CC(C)(C)OC(=O)NNc1ccc(NC(=O)OC(C)(C)C)cc1` registered a melting point of 155 °C.

With `O=C(Nc1ccc2ccccc2c1-c1c(P(c2ccccc2)c2ccccc2)ccc2ccccc12)c1ccccc1`, the melting point came out at 94.8 °C.

For `C=CCn1cc2c(C3C(=O)Nc4ccc(C#N)cc43)ncnc2n1` (centres undefined), the melting point was above 300 °C.

For the compound `CNc1ccc(OC)c([N+](=O)[O-])c1OC`, the melting point turned out to be 57 °C.

The compound `CC(NOCc1ccccc1)c1cc2ccccc2s1` (centres undefined) came in with a melting point of 55 to 56 °C.

The compound `COc1ccc(Cc2cnc(N)nc2N)cc1OCCCNS(=O)(=O)c1ccc(NC(C)=O)cc1` came in with a melting point of 96 to 98 °C.

On to `Cc1cc2c(cc1Cl)NC(NC(C)C)=NS2(=O)=O`, for which the melting point lay within 120 to 122 °C.

The compound `CCCCCCCCCCCCCc1nnc(C=Cc2ncc([N+](=O)[O-])n2C)s1` had a melting point of 91 °C.

The compound `O=C(O)CCc1c(C(=O)O)[nH]c2cc(-c3ccccc3)cc(-c3ccccc3)c12` had a melting point of 243 to 245 °C.

For `COCCOc1ccc(OCC(O)CNCCNC(=O)N2CCOCC2)cc1` (centres undefined), the melting point worked out at 69 °C.

As to `Cc1cnc(Cl)c(C(=O)N(CCO)Cc2cc(C(F)(F)F)cc(C(F)(F)F)c2)c1-c1ccccc1`, the melting point was 146 to 148 °C.

For the compound `Nc1ccccc1Sc1c(N)[nH]c(=O)[nH]c1=O`, the melting point is above 310 °C.

For `COc1ccc(N2CCN(c3ccc(OC)nc3-c3ccc(N(C)C)cc3)CCC2=O)cc1`, the melting point was 192 to 193 °C.

On to `Cc1cc2oc(=O)c3c(c2cc1C)CCNC3`, for which the melting point was 173 to 175 °C.

The compound `CC1(C)OC(=O)Nc2ccc(-c3cncc(C#N)c3)cc21` yielded a melting point of 290 to 291 °C.

The compound `COC(=O)c1ccccc1S(=O)(=O)c1ccc(/C=C/c2ccc(F)cc2)cc1` had a melting point of 125 °C.

In turn, `CCCCc1nc(C(C)O)c(C(=O)O)n1Cc1ccc(-c2ccccc2-c2nnn[nH]2)cc1` (centres undefined) yielded a melting point of 214 to 217 °C.

The compound `CS(=O)(=O)Nc1cccc(OCC#N)c1` showed a melting point of 91 to 92 °C.

`OCc1cc(-c2ccccc2)nn1Cc1ccc(Cl)cc1Cl`: the melting point was in the range of 140 to 141 °C.

As to `COc1ccc(Nc2nc(NCCNC(=O)OC(C)(C)C)nc(NC3CCCCCC3)n2)cc1Cl`, the melting point came to 94 °C.

Consider `O=C(O)Cc1cc([N+](=O)[O-])ccc1C(=O)O`, for which the melting point was in the range of 180 to 182 °C.

Regarding `COC(=O)NC1CCN(c2nc(N3CCOCC3)c3ncnc(N(C)Cc4ccccc4)c3n2)CC1`, the melting point came out at 110 °C.

For `CC(=O)c1ccc(OCCCOc2cccc(NC(=O)c3nnn[nH]3)c2C#N)c(CCC(F)(F)F)c1O`, the melting point was 206 to 208 °C.

`CC(=O)Nc1cc(-n2c(-c3ccccc3)cc3c2CCCC3)cc(C(=O)O)c1O` yielded a melting point of 232 to 234 °C.

Compound `COC(=O)c1cc(S)cc(C(=O)OC)c1[N+](=O)[O-]` showed a melting point of 117 to 119 °C.

For `O=C(NC(Cc1ccccc1)C(=O)O)OCc1ccc(COCc2ccccc2)cc1` (centres undefined), the melting point lay in the range of 78.3 to 79.9 °C.

For `COCc1cc2ccccc2c(Oc2ccc(/C=C/C(=O)O)cc2)c1-c1ccccc1`, the melting point was 76 to 79 °C.

`CC1Cc2c(N3C(=O)C4CCCCN4C3=O)ccc(Cl)c2O1` (centres undefined) displayed a melting point of 145 to 148 °C.

On to `COc1cc2nc(N3CCN(c4nccs4)CC3)nc(N)c2cc1OC`, for which the melting point fell in the range of 220 to 221 °C.

`CC(=O)N[C@@H]1CC[C@@H](O)c2ccccc21` (relative stereo) returned a melting point of 120 to 127 °C.

Compound `CCC=C1Cc2c3c(c(C)c(C)c2C1=O)OC(C(=O)O)C3` (centres undefined) yielded a melting point of 229 °C.

Compound `COc1ccc2cc(C3=CC4CCC(C3)N4)ccc2c1` (centres undefined) returned a melting point of 138 °C.

Compound `COc1ccc(C)cc1NC(=O)Nc1ccc(N2CCN(C(=O)Oc3ccc(CCO)cc3Cl)CC2)cc1` gave a melting point of 189 to 190 °C.

Take `Cc1nc(CN2C(=O)COc3cc(N)ccc32)no1`: the melting point was 146 to 148 °C.

In the case of `O=C(O)c1cc2c(Cl)ccc(Br)c2s1`, the melting point is above 300 °C.

The compound `O=C(NC1(C(=O)O)CCc2cc(O)ccc2C1)C(F)(F)F` (centres undefined) returned a melting point of 70 to 95 °C.

For the compound `COc1ccc(OCCCCCCCc2cc(C)no2)c([N+](=O)[O-])c1`, the melting point was 51 °C.

On to `CCCCCCCCCCCCCCCCOCC(CC(CCCCCCCCCCCCCC)C(=O)NCCO)OCc1ccccc1` (centres undefined), for which the melting point fell in the range of 39 to 40 °C.

The compound `CN(C)C(N)=Nc1cc(F)ccc1N1CCOCC1` came in with a melting point of 137 to 138 °C.

Regarding `COc1ccc(CNS(=O)(=O)c2ccc(C(CC3CCCC3)C(=O)Nc3nc4ccc(OC)nc4s3)cc2)cc1` (centres undefined), the melting point lay in the range of 170 to 172 °C.
